Experimental data taken from paper PMC8333309, “Mechanism of LolCDE as a molecular extruder of bacterial triacylated lipoproteins” (Nature Communications, 2021).

Target: T1, LolCDE (Escherichia coli, UniProt P75957)
T1 construct: gene lolD; co-expressed in E. coli BL21(DE3); purified in DDM, reconstituted into MSP1D1/POPG nanodiscs; co-purifies with lipoprotein; with Lipoprotein-releasing system transmembrane protein LolC; Lipoprotein-releasing system transmembrane protein LolE
T1 sequence (P75957 1-233): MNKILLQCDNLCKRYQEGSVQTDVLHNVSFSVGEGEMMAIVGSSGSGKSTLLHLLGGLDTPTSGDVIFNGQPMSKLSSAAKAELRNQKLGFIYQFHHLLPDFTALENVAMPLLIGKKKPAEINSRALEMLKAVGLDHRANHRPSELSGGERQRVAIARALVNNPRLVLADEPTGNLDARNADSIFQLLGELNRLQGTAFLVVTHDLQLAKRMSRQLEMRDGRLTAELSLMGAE
T1 sequence (P0ADC3 1-399 partner): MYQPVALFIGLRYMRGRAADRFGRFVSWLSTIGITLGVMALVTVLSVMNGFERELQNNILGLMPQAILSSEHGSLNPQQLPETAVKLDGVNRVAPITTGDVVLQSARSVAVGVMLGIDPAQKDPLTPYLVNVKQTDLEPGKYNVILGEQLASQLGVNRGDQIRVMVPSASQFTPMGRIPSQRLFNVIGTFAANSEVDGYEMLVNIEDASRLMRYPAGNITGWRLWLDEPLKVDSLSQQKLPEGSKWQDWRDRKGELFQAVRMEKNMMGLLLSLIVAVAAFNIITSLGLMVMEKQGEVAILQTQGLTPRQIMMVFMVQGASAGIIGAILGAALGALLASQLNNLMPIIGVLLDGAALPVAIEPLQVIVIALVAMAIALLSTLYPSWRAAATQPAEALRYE
T1 sequence (P75958 2-414 partner): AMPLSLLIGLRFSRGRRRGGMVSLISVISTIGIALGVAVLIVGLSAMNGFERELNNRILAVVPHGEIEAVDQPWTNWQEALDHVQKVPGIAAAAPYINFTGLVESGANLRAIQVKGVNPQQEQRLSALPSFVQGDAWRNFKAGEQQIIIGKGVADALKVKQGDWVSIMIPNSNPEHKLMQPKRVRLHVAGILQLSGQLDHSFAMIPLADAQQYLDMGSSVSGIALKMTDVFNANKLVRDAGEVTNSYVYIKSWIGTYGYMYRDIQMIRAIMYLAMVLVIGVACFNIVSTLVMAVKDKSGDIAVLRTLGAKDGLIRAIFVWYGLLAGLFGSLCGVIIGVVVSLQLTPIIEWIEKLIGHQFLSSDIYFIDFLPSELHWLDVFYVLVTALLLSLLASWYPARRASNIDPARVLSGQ
Experiment: colorimetric phosphate-release ATPase assay
Format: biochemical
Conditions: LolCDE in nanodiscs; 4 mM ATP, 4 mM MgCl2, pH 8, 37 °C; traps ADP-vanadate in the ATP site

[O]=[V]([OH])([OH])[OH] [orthovanadate]
% inhibition at 0.1 mM: ~ 90%
